In US20060235013A1, “Tricyclic azole derivatives” (priority 2005, published 2006):

Tested on: HCT 116 cells
Assay: Viability assay in HCT 116 cells (CellTiter-Glo Luminescent Cell Viability Assay)
Type: cell-based
Details: HCT 116 human colon carcinoma cells, 5 days (120 h) incubation, ATP luminescence
Protocol: Viability Assay in HCT 116 Cells
A viability assay was performed using the CellTiter-Glo® Luminescent Cell Viability Assay (see Promega Corporation's Technical Bulletin No. 288, pp. 1-11 [revised February 2004] which is hereby incorporated by reference in its entirety). This assay is a homogeneous method of determining the number of viable cells in culture based on quantitation of the ATP present, an indicator of metabolically active cells. The assay is designed for use with multiwell formats, making it ideal for automated high-throughput screening (HTS), cell proliferation and cytotoxicity assays. The homogenous assay procedure involves adding a single reagent (containing luciferase, luciferan substrate, and buffer) directly to cells cultured in serum-supplemented medium. Cell washing, removal of medium and multiple pipetting steps are not required. The system detects as few as 15 cells/well in a 384-well format in 10 minutes after adding reagent and mixing.
The homogeneous “add-mix-measure” format results in cell lysis and generation of a luminescent signal proportional to the amount of ATP present. The amount of ATP is directly proportional to the number of cells present in culture. The above-referenced assay generates a “glow-type” luminescent signal, produced by the luciferase reaction, which has a half-life generally greater than five hours, depending on cell type and medium used. The extended half-life eliminates the need to use reagent injectors and provides flexibility for continuous or batch mode processing of multiple plates. The unique homogeneous format avoids errors that may be introduced by other ATP measurement methods that require multiple steps.
HCT 116 cells (human colon carcinoma, ATCC-No. CCl-247) were cultivated in RPMI 1640 medium with GlutaMAX™ I (cell culture media that contains L-Alanyl-L-Glutamine [a stabilized a form/source of L-Glutamine] from Invitrogen, Cat-No. 61870-010), 2.5% Fetal Calf Serum (FCS, Sigma Cat-No. F4135 (FBS)); 100 Units/ml penicillin/100 μg/ml streptomycin (=Pen/Strep from Invitrogen Cat. No. 15140). For the assay the cells were seeded in 384 well plates, 1000 cells per well, in the same medium. The next day the test compounds were added in various concentrations ranging from 30 μM to 0.0015 μM (10 concentrations, 1:3 diluted). After 5 days the viability assay was done according to the instructions of the manufacturer. In brief: the cell-plate was equilibrated to room temperature for approximately 30 minutes and then reagent (containing luciferase, luciferan substrate, and buffer) was added. The contents were carefully mixed for 15 minutes to induce cell lysis. After 45 minutes the luminescent signal was measured in Victor 2, (scanning multiwell spectrophotometer, Wallac).
Medium: RPMI 1640 with cell culture media containing L-Alanyl-L-Glutamine [GlutaMAX™ I (Invitrogen, Cat-No. 61870)], 5% FCS (Sigma Cat.-No. F4135), Pen/Strep (Invitrogen, Cat No. 15140).
HCT116 (ATCC-No. CCl-247): 1000 cells in 60 μl per well of 384 well plate (Greiner 781098, μClear-plate white)
After seeding incubate plates 24 h at 37° C., 5% CO2
2nd. Day: Induction (Treatment with Compounds, 10 Concentrations):
In order to achieve a final concentration of 30 μM as highest concentration 3.5 μl of 10 mM compound stock solution were added directly to 163 μl media. Then step (d) of the dilution procedure described below, was followed.
In order to achieve the second highest to the lowest concentrations, a serial dilution with dilution steps of 1:3 was followed according to the procedure (a-d) as described here below:
(a) for the second highest concentration add 10 μl of 10 mM stock solution of compound to 20 μl dimethylsulfoxide (DMSO)
(b) dilute 8×1:3 (always 10 μl to 20 μl DMSO) in this DMSO dilution row (results in 9 wells with concentrations from 3333.3 μM to 0.51 μM)
(c) dilute each concentration 1: 47.6 (3.5 μl compound dilution to 163 μl media)
(d) add 10 μl of every concentration to 60 μl media in the cell plate […]

| SMILES | IC50 [nM] |
| --- | --- |
| CC1(C)C(=O)Nc2cc3[nH]c(-c4n[nH]c5c4CCCC5)nc3cc21 [Example 7, 7,7-Dimethyl-2-(4,5,6,7-tetrahydro-1H-indazol-3-yl)-5,7-dihydro-3H-imidazo[4,5-f]indol-6-one] | 100 to 2000 |
| CCN1C(=O)C(C)(C)c2cc3nc(-c4n[nH]c5c4CCCC5)[nH]c3cc21 [Example 8, 5-Ethyl-7,7-dimethyl-2-(4,5,6,7-tetrahydro-1H-indazol-3-yl)-5,7-dihydro-3H-imidazo[4,5-f]indol-6-one] | 100 to 2000 |
| CCN1C(=O)C(C)(C)c2cc3nc(-c4n[nH]c5c4CN(Cc4ccccc4)CC5)[nH]c3cc21 [Example 13, 2-(5-Benzyl-4,5,6,7-tetrahydro-1H-pyrazolo[4,3-c]pyridin-3-yl)-5-ethyl-7,7-dimethyl-5,7-dihydro-3H-imidazo[4,5-f]indol-6-one] | 100 to 2000 |
| CCN1C(=O)C(C)(C)c2cc3nc(-c4n[nH]c5c4CN(C(=O)Cc4cccs4)C5)[nH]c3cc21 [Example 23, 5-Ethyl-7,7-dimethyl-2-[5-(2-thiophen-2-yl-acetyl)-1,4,5,6-tetrahydro-pyrrolo[3,4-c]pyrazol-3-yl]-5,7-dihydro-3H-imidazo[4,5-f]indol-6-one] | 100 to 2000 |
| CC(C)N1C(=O)C(C)(C)c2cc3nc(-c4n[nH]c5c4CN(C(=O)Cc4cccs4)C5)[nH]c3cc21 [Example 24, 5-Isopropyl-7,7-dimethyl-2-[5-(2-thiophen-2-yl-acetyl)-1,4,5,6-tetrahydro-pyrrolo[3,4-c]pyrazol-3-yl]-5,7-dihydro-3H-imidazo[4,5-f]indol-6-one] | 741 |
| CCN1C(=O)C(C)(C)c2cc3nc(-c4n[nH]c5c4CSCC5)[nH]c3cc21 [Example 26, 5-Ethyl-7,7-dimethyl-2-(1,4,6,7-tetrahydro-thiopyrano[4,3-c]pyrazol-3-yl)-5,7-dihydro-3H-imidazo[4,5-f]indol-6-one] | 100 to 2000 |
| CCN1C(=O)C(C)(C)c2cc3nc(-c4n[nH]c5c4CN(C(=O)N4CCOCC4)CC5)[nH]c3cc21 [Example 18, 5-Ethyl-7,7-dimethyl-2-[5-(morpholine-4-carbonyl)-4,5,6,7-tetrahydro-1H-pyrazolo[4,3-c]pyridin-3-yl]-5,7-dihydro-3H-imidazo[4,5-f]indol-6-one] | 100 to 2000 |
| CCN1C(=O)C(C)(C)c2cc3nc(-c4n[nH]c5c4CCC5)[nH]c3cc21 [Example 3, 5-Ethyl-7,7-dimethyl-2-(1,4,5,6-tetrahydro-cyclopentapyrazol-3-yl)-5,7-dihydro-3H-imidazo[4,5-f]indol-6-one] | 100 to 2000 |
| CCN1C(=O)C(C)(C)c2cc3nc(-c4n[nH]c5c4CN(C(=O)Cc4ccc(F)cc4)CC5)[nH]c3cc21 [Example 15, 5-Ethyl-2-{5-[2-(4-fluoro-phenyl)-acetyl]-4,5,6,7-tetrahydro-1H-pyrazolo[4,3-c]pyridin-3-yl}-7,7-dimethyl-5,7-dihydro-3H-imidazo[4,5-f]indol-6-one] | 1500 |
| CC1(C)C(=O)N(CCCN2CCOCC2)c2cc3[nH]c(-c4n[nH]c5c4CCC5)nc3cc21 [Example 6, 7,7-Dimethyl-5-(3-morpholin-4-yl-propyl)-2-(1,4,5,6-tetrahydro-cyclopentapyrazol-3-yl)-5,7-dihydro-3H-imidazo[4,5-f]indol-6-one] | 682 |
| CCN1C(=O)C(C)(C)c2cc3nc(-c4n[nH]c5c4CN(S(=O)(=O)c4ccc(F)cc4)C5)[nH]c3cc21 [Example 25, 5-Ethyl-2-[5-(4-fluoro-benzenesulfonyl)-1,4,5,6-tetrahydro-pyrrolo[3,4-c]pyrazol-3-yl]-7,7-dimethyl-5,7-dihydro-3H-imidazo[4,5-f]indol-6-one] | 100 to 2000 |
| CC1(C)C(=O)Nc2cc3[nH]c(-c4n[nH]c5c4CCC5)nc3cc21 [Example 1, 7,7-Dimethyl-2-(1,4,5,6-tetrahydro-cyclopentapyrazol-3-yl)-5,7-dihydro-3H-imidazo[4,5-f]indol-6-one] | 100 to 2000 |
